Read-outs that look alike come from different tables or passages of the source.
Legend:
[1] = system: Key Broadleaf Weed and Crop Species; assay: Post-emergent Test II herbicidal activity (Table 15); type: in vivo; conditions: post-emergence, 336 h, 14 d; for pest or weed control at 35 g/ha: 35 g ai/ha; for pest or weed control at 70 g/ha: 70 g ai/ha; for pest or weed control at 140 g/ha: 140 g ai/ha
How it was run: (§1)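 Visual injury rating (0 = none, 100 = complete kill) taken 14 d after treatment, relative to untreated plants. Compounds in acetone/DMSO with crop oil concentrate and Triton X-155 were track-sprayed at 187 L/ha onto seedlings at the first-second true leaf stage.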

[2] = system: Key Grass and Sedge Weeds as well as Grass Crops; assay: Post-emergent Test II herbicidal activity (Table 16); type: in vivo; conditions: post-emergence, 336 h, 14 days after application; for pest or weed control at 35 g/ha: 35 g ai/ha; for pest or weed control at 70 g/ha: 70 g ai/ha; for pest or weed control at 140 g/ha: 140 g ai/ha
How it was run: as §1

[3] = Abutilon theophrasti, velvetleaf (Abutilon theophrasti), read-out: Visual Growth Reduction (%) 14 Days After Application, ABUTH
[4] = Amaranthus retroflexus, redroot pigweed (Amaranthus retroflexus), read-out: Visual Growth Reduction (%) 14 Days After Application, AMARE
[5] = Brassica napus, oilseed rape, canola (Brassica napus), read-out: Visual Growth Reduction (%) 14 Days After Application, BRSNN
[6] = Chenopodium album, lambsquarters (Chenopodium album), read-out: Visual Growth Reduction (%) 14 Days After Application, CHEAL
[7] = Euphorbia heterophylla, wild poinsettia (Euphorbia heterophylla), read-out: Visual Growth Reduction (%) 14 Days After Application, EPHHL
[8] = Helianthus annuus, sunflower (Helianthus annuus), read-out: Visual Growth Reduction (%) 14 Days After Application, HELAN
[9] = Cyperus esculentus, yellow nutsedge (Cyperus esculentus), read-out: Visual Growth Reduction (%) 14 Days After Application CYPES
[10] = Echinochloa crus-galli, barnyardgrass (Echinochloa crus-galli), read-out: Visual Growth Reduction (%) 14 Days After Application ECHCG
[11] = Oryza sativa, rice (Oryza sativa), read-out: Visual Growth Reduction (%) 14 Days After Application ORYSA
[12] = Setaria faberi, giant foxtail (Setaria faberi), read-out: Visual Growth Reduction (%) 14 Days After Application SETFA
[13] = Triticum aestivum, wheat, spring (Triticum aestivum), read-out: Visual Growth Reduction (%) 14 Days After Application TRZAS
[14] = Zea mays, maize, corn (Zea mays), read-out: Visual Growth Reduction (%) 14 Days After Application ZEAMX

What does the source list for `COC(=O)c1nc(-c2ccc3cn[nH]c3c2)cc(N)c1Cl` [Compound 4.09]?
pest or weed control at 35 g/ha [1, 3]: 0 to 29%; pest or weed control at 70 g/ha [1, 3]: 0 to 29%; pest or weed control at 140 g/ha [1, 3]: 0 to 29%; pest or weed control at 35 g/ha [1, 4]: 0 to 29%; pest or weed control at 70 g/ha [1, 4]: 45 to 59%; pest or weed control at 140 g/ha [1, 4]: 85 to 94%; pest or weed control at 35 g/ha [1, 5]: 0 to 29%; pest or weed control at 70 g/ha [1, 5]: 0 to 29%; pest or weed control at 140 g/ha [1, 5]: 60 to 74%; pest or weed control at 35 g/ha [1, 6]: 45 to 59%; pest or weed control at 70 g/ha [1, 6]: 75 to 84%; pest or weed control at 140 g/ha [1, 6]: 85 to 94%; pest or weed control at 35 g/ha [1, 7]: 0 to 29%; pest or weed control at 70 g/ha [1, 7]: 0 to 29%; pest or weed control at 140 g/ha [1, 7]: 0 to 29%; pest or weed control at 35 g/ha [1, 8]: 0 to 29%; pest or weed control at 70 g/ha [1, 8]: 30 to 44%; pest or weed control at 140 g/ha [1, 8]: 45 to 59%; pest or weed control at 35 g/ha [2, 9]: 0 to 29%; pest or weed control at 70 g/ha [2, 9]: 0 to 29%; pest or weed control at 140 g/ha [2, 9]: 0 to 29%; pest or weed control at 35 g/ha [2, 10]: 0 to 29%; pest or weed control at 70 g/ha [2, 10]: 0 to 29%; pest or weed control at 140 g/ha [2, 10]: 0 to 29%; pest or weed control at 35 g/ha [2, 11]: 0 to 29%; pest or weed control at 70 g/ha [2, 11]: 0 to 29%; pest or weed control at 140 g/ha [2, 11]: 0 to 29%; pest or weed control at 35 g/ha [2, 12]: 0 to 29%; pest or weed control at 70 g/ha [2, 12]: 0 to 29%; pest or weed control at 140 g/ha [2, 12]: 0 to 29%; pest or weed control at 35 g/ha [2, 13]: 0 to 29%; pest or weed control at 70 g/ha [2, 13]: 0 to 29%; pest or weed control at 140 g/ha [2, 13]: 0 to 29%; pest or weed control at 35 g/ha [2, 14]: 0 to 29%; pest or weed control at 70 g/ha [2, 14]: 0 to 29%; pest or weed control at 140 g/ha [2, 14]: 0 to 29%; melting point: 191 to 193 °C
